Source: patent US11261220B2, “Salmonella siiE-derived peptides for manipulation of long-lived plasma cells” (DEUTSCHES RHEUMA-FORSCHU[…], priority 2017, dated 2022)

Assays:
[1] = test system: B cells and IgG-secreting plasma cells in the BM; settings: i.p. twice a day 5 μg for 4 days
Experimental: C57BL/6 mice were injected i.p. twice a day with 5 μg of AMD3100 for 4 days. B220+cells and IgG-secreting plasma cells were analyzed on day 4 by flow cytometry (H) and by ELISpot assay (I), respectively. n=5-6. The data are representative of at least two independent experiments. *p<0.05, **p<0.01, ***p<0.001.
To count Ig-secreting cells, MultiScreen filter plates with PVDF membrane (Merck) were activated for 1 min with 35% ethanol followed by washing and were coated with 7.2 μg/ml of goat anti-mouse Ig, F(ab′)2 fragment (Jackson ImmunoResearch) overnight at 4° C. After washing and blocking with RPMI1640/10% FCS, diluted fresh cells were added and incubated for 5 h at 37° C. Following incubation, alkaline phosphatase-conjugated anti-IgG, IgG1, IgM or IgA (Southern Biotech) was added for 1 h at 37° C. and spots were visualized with BCIP/NBT Plus substrate (Mabtech) and were counted by ELISpot reader (AID).

[2] = test system: BM IgG-secreting plasma cells; assay: ELISpot count of Ig-secreting cells the day after i.p. SiiE peptide; type: in vivo; settings: C57BL/6 mice, i.p. 100 μg peptide, analyzed on the next day
Experimental: FIG. 5. Identification of the microbial component reducing numbers of BM IgG-secreting plasma cells. (A) Salmonella colonizes in the spleen and liver but not in the BM. The CFU of Salmonella in the spleen, liver and BM of Salmonella-infected mice on day 4 after infection was counted. The dotted line represents the limit of detection. n=3-6. […] C57BL/6 mice received 200 μl of LB medium, untreated or LPS-depleted culture supernatants from flagellin-deficient attenuated Salmonella or Escherichia coli (ΔLonΔFIhD) and on the next day (24 h later) were analyzed for IgG-secreting cells by ELISpot assay. n=8. […] Mice were infected i.p. with 200 μl of LB and LPS-depleted supernatant from flagellin-deficient attenuated Salmonella on day 41 and analyzed for IgG-secreting cells on the next day. n=6. […] C57BL/6 mice received i.p. 200 μl of LB medium and LPS-depleted supernatants from attenuated Salmonella ΔLon or ΔLonΔSiiE and on the next day were analyzed for IgG-secreting cells by ELISpot assay. n=5. […] C57BL/6 mice received i.p. 100 μg peptide coding SiiE amino acid 129-168 and on the next day were analyzed for IgG- and IgM-secreting cells in the BM and spleen. n=5. […] BM or splenic cells from C57BL/6 mice were incubated with 30 μg/ml of GST-SiiE 97-170 or GST protein, stained with anti-GST antibodies, and analyzed by flow cytometry. n=3. […] Adherent cells were counted after washing.

[3] = test system: anti-DNA IgG-secreting plasma cells in the BM; assay: Murine model of systemic lupus erythematosus, anti-DNA IgG ELISpot in BM; type: in vivo; settings: NZB/VV Fl female mice 5-6 months old, i.p. 100 μg on days 0, 3, 7 and 10, ELISpot on day 11
Experimental: FIG. 15. SiiE129 peptide reduce numbers of DNA-specific IgG-secreting plasma cells in the bone marrow. […] NZB/VV Fl female mice (5-6 months old) received i.p. 100 μg peptide coding SiiE amino acid 129-168 on days 0, 3, 7 and 10 and on day 11 were analyzed for anti-DNA IgG-secreting cells in the BM by ELISpot assay. n=5-6. The data are representative of two independent experiments.
NZB/VV Fl female mice (5-6 months old) received i.p. 100 μg peptide coding SiiE amino acid 129-168 on days 0, 3, 7 and 10 and on day 11 were analyzed for anti-DNA IgG-secreting cells in the BM by ELISpot assay.

Compound	B cell numbers in the BM ([1]; B220+ cells by flow cytometry on day 4)	numbers of IgG-secreting plasma cells in the BM ([1]; ELISpot on day 4)	numbers of BM IgG-secreting plasma cells [2]	numbers of BM IgG-secreting plasma cells ([2]; listed as peptide coding SiiE amino acid 129-168)	number of anti-DNA IgG-secreting cells in bone marrow [3]	number of anti-DNA IgG-secreting cells in bone marrow ([3]; listed as SiiE129 peptide)
c1cc(CN2CCCNCCNCCCNCC2)ccc1CN1CCCNCCNCCCNCC1 [AMD3100]	numerically reduces B cells	but not IgG-secreting plasma cells in the BM				
KEADKAKEEAEKAKEAAEKALNEAFEVQNSSKQIEEMLQN (listed as Salmonella enterica) [SiiE 129-168]			markedly reduced numbers of BM IgG-secreting plasma cells	reduces numbers of BM IgG-secreting plasma cells	reduces the number of Anti-DNA IgG-secreting cells in bone marrow	reduces numbers of anti-DNA IgG-secreting plasma cells in the BM
